# What was measured:
# Experiment in all cases: Indoor virulence and combined effect, greenhouse pot test, post-emergence stem and leaf spray, fresh weight inhibition
# Type in all cases: in vivo
# lolium multiflorum = system: lolium multiflorum
# Procedure: (§1) The active ingredients A and B are respectively screened and an indoor combined effect of the composition on weeds was evaluated by an indoor test and a field test, to determine a combined effect of the composition on weeds.
# (§2) Quantitative seeds of Poaceae weeds (echinochloa crusgalli, Digitaria sanguinalis, setaria viridis, Eleusine indica, avena fatua, alopecurus japonicus, alopecurus aequalis, Lolium multiflorum) and broadleaf weeds (eclipta prostrata, rorippa dubia, Abutilon theophrasti, conyza canadensis, veronica persica, myosoton aquaticum, polygonum lapathifolium, galium aparine var. tenerum, alisma plantago-aquatica, geranium carolinianum) were sown in paper cup containing nutrient soil with a diameter of 7 cm, covered with soil for 1 cm after sowing. After pressing and watering, they were cultured in a greenhouse according to a conventional method. Poaceae weeds grew to 3˜4 leaf stage, broad-leaved weeds grew to 4˜6 leaf stage, spraying treatment to both stem and leaf was performed; and pre-seedling soil spray treatment was performed 24 hours after sowing. Following an experimental design dosage, a WP-2000 walking spray tower (spindle speed 96 mm/r, spray height 200 mm, effective spray amplitude of nozzle 350 mm, nozzle flow rate 390 mL/min, nozzle walking speed 210 mm/s) was used for the spray treatment. The experiment was repeated three times. After being treated, a sample material is placed in an operation hall, and after the drug solution is naturally dried out, the sample material is placed in a greenhouse and managed according to the conventional method. A reaction of weeds to the drug agent is observed and recorded, and a regularly visual check of a control effect of the drug agent on weeds was performed after the treatment.
# (§3) All of original drugs were using acetone as a solvent, being diluted with 0.1 wt % emulsifier of Tween-80 aqueous solution, and being diluted right before using.
# (§4) When determining a ratio or content of the active ingredient A and the active ingredient B, it should be measured from characteristics of action of both agents and virulence thereof, as well as the main purpose of use of a formula shall also be considered in. In the present study, on a basis of previous pre-test, the dosages of the active ingredient A and the active ingredient B were set, when being used alone and mixed, as shown in the following table. Water containing no agent, but containing the same solvent and emulsifier was used as a blank control.
# (§5) Repeat 4 times for each treatment, 3 pots per treatment each time and 30 weed seeds were sown for each pot.
# (§6) Adopting an absolute number survey method, using a blade to cut the whole seedling of surviving weed along soil surface, and weighting the fresh weight of the weed with an analytical balance. For weeds that had died, counting the fresh weight as zero.
# (§7) Survey period and frequency: 21 days after the treatment, total 1 investigation.
# (§8) The theoretical fresh weight inhibition rate (E0-Expected Efficacy=[…]) of each treatment combination was calculated by Gowing method, and then compared with the measured inhibition rate (E-Observed Efficacy) to evaluate the combined effect type of both on weeds. When E-E0 value was greater than 10%, it was counted as a synergistic effect, less than −10%, it was counted as an antagonistic effect, and between −10%˜10%, it was counted as an additive effect. According to a plurality of factors including an actual control efficacy, a herbicide characteristic, a formula balance and other factors to determine the best ratio. In the formula, X is the fresh weight inhibition rate of the ingredient A at a dosage of P; Y is the fresh weight inhibition rate of the active ingredient B at a dosage of Q.
# (§9) The statistical results are shown in Table 1 to Table 44 below, except for those marked clearly as “pre-emergence treatment”, all others are “post-emergence treatment”. […]
# veronica persica = system: veronica persica
# Procedure: as §1, §2, §3, §4, §5, §6, §7, §8, §9
# eclipta prostrata = details: Table 11
# Procedure: as §1, §2, §3, §4, §5, §6, §7, §8, §9
# echinochloa crusgalli = details: for Fresh weight suppression rate %, B single dose: Table 22
# Procedure: as §1
# as §2, with “Following an experimental design dosage, a WP-2000 walking spray tower (spindle speed 96 mm/r, spray height 200 mm, effective spray amplitude of nozzle 350 mm, nozzle flow rate 390 mL/min, nozzle walking speed 210 mm/s) was used for the spray treatment.” left out, “method.” for “method. A reaction of weeds to the drug agent is observed and recorded, and a regularly visual check of a control effect of the drug agent on weeds was performed after the treatment.”
# as §3, §4, §5, §6, §7
# When E-E0 value was greater than 10%, it was counted as a synergistic effect, less than −10%, it was counted as an antagonistic effect, and between −10%˜10%, it was counted as an additive effect. […] In the formula, X is the fresh weight inhibition rate of the ingredient A at a dosage of P; Y is the fresh weight inhibition rate of the active ingredient B at a dosage of Q.
molecule,measurement,setting,value
c1cc[n+]2c(c1)-c1cccc[n+]1CC2 [diquat],"Fresh weight inhibition rate %, B single agent","lolium multiflorum; Table 27, B 300 g a.i./ha",31.27%
same,"Fresh weight inhibition rate %, B single agent","lolium multiflorum; Table 27, B 400 g a.i./ha",36.44%
same,"Fresh weight inhibition rate %, B single agent","lolium multiflorum; Table 27, B 495 g a.i./ha",41.37%
CNC.COc1c(Cl)ccc(Cl)c1C(=O)O [dicamba-dimethylammonium],"Fresh weight inhibition rate %, B single agent","veronica persica; Table 24, B 40 g a.i./ha",11.68%
same,"Fresh weight inhibition rate %, B single agent","veronica persica; Table 24, B 60 g a.i./ha",25.89%
same,"Fresh weight inhibition rate %, B single agent","veronica persica; Table 24, B 80 g a.i./ha",37.82%
same,"Fresh weight inhibition rate %, B single agent","veronica persica; Table 24, B 100 g a.i./ha",38.58%
C#CCN1C(=O)COc2cc(F)c(N3C(=O)C4=C(CCCC4)C3=O)cc21 [flumioxazin],"Fresh weight inhibition rate %, B single agent",eclipta prostrata; B 8 g a.i./ha,24.97%
same,"Fresh weight inhibition rate %, B single agent",eclipta prostrata; B 16 g a.i./ha,39.68%
same,"Fresh weight inhibition rate %, B single agent",eclipta prostrata; B 20 g a.i./ha,45.24%
same,"Fresh weight inhibition rate %, B single agent",eclipta prostrata; B 30 g a.i./ha,54.24%
"CCCCC(CC)COC(=O)COc1ccc(Cl)cc1Cl [2,4-D-etexyl]","Fresh weight inhibition rate %, B single agent","veronica persica; Table 23, B 195 g a.i./ha",30.42%
same,"Fresh weight inhibition rate %, B single agent","veronica persica; Table 23, B 275 g a.i./ha",40.62%
same,"Fresh weight inhibition rate %, B single agent","veronica persica; Table 23, B 350 g a.i./ha",50.28%
COC(=O)CCNC(=O)C(C)Sc1cc(-n2c(=O)cc(C(F)(F)F)n(C)c2=O)c(F)cc1Cl (centres unmarked) [tiafenacil],"Fresh weight inhibition rate %, B single agent","lolium multiflorum; Table 38, B 10 g a.i./ha",8.27%
same,"Fresh weight inhibition rate %, B single agent","lolium multiflorum; Table 38, B 15 g a.i./ha",15.26%
same,"Fresh weight inhibition rate %, B single agent","lolium multiflorum; Table 38, B 20 g a.i./ha",22.42%
COP(=S)(OC)SCC(=O)N(c1ccc(Cl)cc1)C(C)(C)C [anilofos],"Fresh weight suppression rate %, B single dose",echinochloa crusgalli; B 60 g a.i./ha,37.41%
same,"Fresh weight suppression rate %, B single dose",echinochloa crusgalli; B 80 g a.i./ha,41.96%
same,"Fresh weight suppression rate %, B single dose",echinochloa crusgalli; B 105 g a.i./ha,46.85%
same,"Fresh weight suppression rate %, B single dose",echinochloa crusgalli; B 120 g a.i./ha,64.69%
CC1(C)CON(Cc2ccccc2Cl)C1=O [clomazone],inhibition at 12.5 g/ha,"echinochloa crusgalli; Echinochloa crus-galli, 504 h, Table 17, 12.5 g a.i./ha, post-emergence, 21 days after treatment, read-out: Fresh weight inhibition rate %, B single agent",8.42%
same,inhibition at 20 g/ha,"echinochloa crusgalli; Echinochloa crus-galli, 504 h, Table 17, 20 g a.i./ha, post-emergence, 21 days after treatment, read-out: Fresh weight inhibition rate %, B single agent",7.51%
same,inhibition at 45 g/ha,"echinochloa crusgalli; Echinochloa crus-galli, 504 h, Table 17, 45 g a.i./ha, post-emergence, 21 days after treatment, read-out: Fresh weight inhibition rate %, B single agent",10.9%
COCc1cnc(C2=NC(C)(C(C)C)C(=O)N2)c(C(=O)[O-])c1.[Na+] (centres unmarked) [imazamox-sodium],"Fresh weight inhibition rate %, B single agent","echinochloa crusgalli; Table 3, 15 g a.i./ha, post-emergence, 21 days after treatment",2.52%
same,"Fresh weight inhibition rate %, B single agent","echinochloa crusgalli; Table 3, 20 g a.i./ha, post-emergence, 21 days after treatment",13.41%
CC(C)N1C(=O)c2ccccc2NS1(=O)=O [bentazone-sodium],inhibition at 300 g/ha,"veronica persica; Veronica persica, 504 h, Table 9, 300 g a.i./ha, post-emergence, 21 days after treatment, read-out: Fresh weight inhibition rate %, B single agent",30.5%
same,inhibition at 450 g/ha,"veronica persica; Veronica persica, 504 h, Table 9, 450 g a.i./ha, post-emergence, 21 days after treatment, read-out: Fresh weight inhibition rate %, B single agent",41.9%
same,inhibition at 525 g/ha,"veronica persica; Veronica persica, 504 h, Table 9, 525 g a.i./ha, post-emergence, 21 days after treatment, read-out: Fresh weight inhibition rate %, B single agent",53.3%
CP(=O)(O)CCC(N)C(=O)O (centres unmarked) [glufosinate-ammonium],"Fresh weight inhibition rate %, B single agent","lolium multiflorum; Table 19, B 120 g a.i./ha",2.63%
same,"Fresh weight inhibition rate %, B single agent","lolium multiflorum; Table 19, B 210 g a.i./ha",12.20%
same,"Fresh weight inhibition rate %, B single agent","lolium multiflorum; Table 19, B 300 g a.i./ha",27.99%
same,"Fresh weight inhibition rate %, B single agent","lolium multiflorum; Table 19, B 400 g a.i./ha",54.64%
N#Cc1cnn(-c2nn3c(c2Cl)CCCC3)c1NCC1CC1 [cyclopyranil],"Fresh weight inhibition rate %, B single agent","echinochloa crusgalli; Table 37, B 12.5 g a.i./ha",24.73%
same,"Fresh weight inhibition rate %, B single agent","echinochloa crusgalli; Table 37, B 20 g a.i./ha",25.46%
same,"Fresh weight inhibition rate %, B single agent","echinochloa crusgalli; Table 37, B 30 g a.i./ha",31.50%
same,"Fresh weight inhibition rate %, B single agent","echinochloa crusgalli; Table 37, B 40 g a.i./ha",39.05%
CP(=O)(O)CC[C@H](N)C(=O)O.N [glufosinate-P-ammonium],"Fresh weight inhibition rate %, B single agent","lolium multiflorum; Table 20, B 200 g a.i./ha",8.61%
same,"Fresh weight inhibition rate %, B single agent","lolium multiflorum; Table 20, B 300 g a.i./ha",74.40%
same,"Fresh weight inhibition rate %, B single agent","lolium multiflorum; Table 20, B 350 g a.i./ha",78.23%
same,"Fresh weight inhibition rate %, B single agent","lolium multiflorum; Table 20, B 400 g a.i./ha",83.04%
COc1cc(OC)nc(Oc2cccc(Oc3nc(OC)cc(OC)n3)c2C(=O)O)n1 [bispyribac-sodium],inhibition at 5 g/ha,"echinochloa crusgalli; Echinochloa crus-galli, 504 h, Table 4, 5 g a.i./ha, post-emergence, 21 days after treatment, read-out: Fresh weight inhibition rate %, B single agent",14.3%
same,inhibition at 10 g/ha,"echinochloa crusgalli; Echinochloa crus-galli, 504 h, Table 4, 10 g a.i./ha, post-emergence, 21 days after treatment, read-out: Fresh weight inhibition rate %, B single agent",21.9%
same,inhibition at 25 g/ha,"echinochloa crusgalli; Echinochloa crus-galli, 504 h, Table 4, 25 g a.i./ha, post-emergence, 21 days after treatment, read-out: Fresh weight inhibition rate %, B single agent",30.1%
broclozone,"Fresh weight inhibition rate %, B single agent","echinochloa crusgalli; Table 44, B 50 g a.i./ha",5.86%
same,"Fresh weight inhibition rate %, B single agent","echinochloa crusgalli; Table 44, B 80 g a.i./ha",16.30%
same,"Fresh weight inhibition rate %, B single agent","echinochloa crusgalli; Table 44, B 120 g a.i./ha",33.00%
same,"Fresh weight inhibition rate %, B single agent","echinochloa crusgalli; Table 44, B 150 g a.i./ha",44.95%
C=CCOC(=O)C(C)(C)OC(=O)c1cc(-n2c(=O)cc(C(F)(F)F)n(C)c2=O)ccc1Cl [butafenacil],"Fresh weight inhibition rate %, B single agent","lolium multiflorum; Table 34, B 7.5 g a.i./ha",29.47%
same,"Fresh weight inhibition rate %, B single agent","lolium multiflorum; Table 34, B 12.5 g a.i./ha",36.55%
same,"Fresh weight inhibition rate %, B single agent","lolium multiflorum; Table 34, B 20 g a.i./ha",43.60%
same,"Fresh weight inhibition rate %, B single agent","lolium multiflorum; Table 34, B 30 g a.i./ha",53.40%
"Nc1c(Cl)c(Cl)nc(C(=O)O)c1Cl [picloram-potassium, picloram]","Fresh weight inhibition rate %, B single agent","veronica persica; Table 26, B 450 g a.i./ha",42.89%
same,"Fresh weight inhibition rate %, B single agent","veronica persica; Table 26, B 525 g a.i./ha",47.46%
same,"Fresh weight inhibition rate %, B single agent","veronica persica; Table 26, B 600 g a.i./ha",50.25%
same,"Fresh weight inhibition rate %, B single agent","veronica persica; Table 26, B 600 g a.i./ha (row 2 + 600)",50.25%

# — patent US20250176550A1, “HERBICIDE COMPOSITION OF URACIL COMPOUND CONTAINING CARBOXYLATE FRAGMENT AND THE USE THEREOF” (Jiangsu Flag Chemical Industry Co., Ltd., priority 2022, published 2025)
